This is an account of results in PubChem BioAssay AID318 (DTP/NCI, 2004).

This assay deals with BDF1 mice, P815 leukemia ip, survival T/C. Kind of assay: NCI In Vivo Anticancer Drug Screen. Data for tumor model P815 Mast Cell Leukemia (Ascitic) (intraperitoneal) in B6D2F1 (BDF1) mice. The settings on record: higher = longer survival. The procedure: The antitumor activity of compounds was measured in mice bearing transplantable tumors. Survival or tumor size were measured and the results are expressed as the measurement made in the treated group (T) divided by the measurement made in the vehicle treated control group (C). The tumor model used in this assay is P815 Mast Cell Leukemia (Ascitic) (intraperitoneal) in B6D2F1 (BDF1) mice

Where [1] appears, read: endpoint: median survival time, dose: 450.0 micrograms/kg/injection, schedule: Q01DX001 (ip), vehicle: saline + alcohol.
Setting [2] is: endpoint: median survival time, dose: 750.0 micrograms/kg/injection, schedule: Q01DX001 (ip), vehicle: saline + alcohol.
[3] abbreviates: endpoint: median survival time, dose: 750.0 micrograms/kg/injection, schedule: Q04DX003 (ip), vehicle: saline + alcohol.
[4] abbreviates: endpoint: median survival time, dose: 1250.0 micrograms/kg/injection, schedule: Q04DX003 (ip), vehicle: saline + alcohol.
[5] abbreviates: endpoint: survival time, mean or median, dose: 5.0 mg/kg/injection, schedule: Q01DX010 (ip), vehicle: saline.
Where [6] appears, read: endpoint: survival time, mean or median, dose: 10.0 mg/kg/injection, schedule: Q01DX010 (ip), vehicle: saline.
[7] abbreviates: endpoint: survival time, mean or median, dose: 20.0 mg/kg/injection, schedule: Q01DX010 (ip), vehicle: saline.
[8] abbreviates: endpoint: survival time, mean or median, dose: 40.0 mg/kg/injection, schedule: Q01DX010 (ip), vehicle: saline.
Where [9] appears, read: endpoint: survival time, mean or median, dose: 8.0 mg/kg/injection, schedule: Q01DX010 (ip), vehicle: saline.
Where [10] appears, read: endpoint: survival time, mean or median, dose: 62.5 mg/kg/injection, schedule: Q01DX010 (ip), vehicle: saline.
Where [11] appears, read: endpoint: survival time, mean or median, dose: 125.0 mg/kg/injection, schedule: Q01DX010 (ip), vehicle: saline.
The mark [12] stands for this setting: endpoint: survival time, mean or median, dose: 25.0 mg/kg/injection, schedule: Q01DX010 (ip), vehicle: saline.
Where [13] appears, read: endpoint: survival time, mean or median, dose: 50.0 mg/kg/injection, schedule: Q01DX010 (ip), vehicle: saline.

Several values for one entry are separate records, joined by “and”; a condition that tells them apart may be missing. Equal entries are not always repeated. Toxic doses and inconclusive results are not listed. Starred links: 1 amine or outer side, 2 acyl side, 3 side chain; linkers in the order of their positions; H or OH if unused. Positions of bridges follow the written chain, without caps; N, C: chain ends. Non-standard residues stand in square brackets, D forms with d. Residues, ends and D or L forms follow the SMILES beside them. Chains are numbered I, II in the order given. Actinocin(1to9) = Cc1c2oc3c(C)ccc(C(=O)[*:2])c3nc-2c(C(=O)[*:1])c(N)c1=O; Actinocin(9to1) = Cc1c2oc3c(C)ccc(C(=O)[*:1])c3nc-2c(C(=O)[*:2])c(N)c1=O; NMeV = CN[CH](C(=O)O)C(C)C; Aze = O=C(O)[CH]1CCN1; Sar = CNCC(=O)O

Turning to `Cc1c2oc3c(C)ccc(C(=O)NC4C(=O)NC(C(C)C)C(=O)N5CCC5C(=O)N(C)CC(=O)N(C)C(C(C)C)C(=O)OC4C)c3nc-2c(C(=O)NC2C(=O)NC(C(C)C)C(=O)N3CCC3C(=O)N(C)CC(=O)N(C)C(C(C)C)C(=O)OC2C)c(N)c1=O` (centres undefined) (I: TV[Aze][Sar][NMeV] / II: TV[Aze][Sar][NMeV]; ester I:1-I:C, II:1-II:C; linker I:N-II:N via Actinocin(9to1); configuration not given here), the T/C by setting is: (endpoint: median survival time, dose: 270.0 micrograms/kg/injection, schedule: Q04DX003 (ip), vehicle: saline + alcohol) 118 % of control; under setting [1], 118 % of control; (endpoint: median survival time, dose: 450.0 micrograms/kg/injection, schedule: Q04DX003 (ip), vehicle: saline + alcohol) 113 % of control; under setting [2], 121 % of control; under setting [3], 97 % of control; (endpoint: median survival time, dose: 1250.0 micrograms/kg/injection, schedule: Q01DX001 (ip), vehicle: saline + alcohol) 105 % of control. Under setting [4], the T/C was 92 % of control.

On to `N=C(N)SCc1c2ccccc2c(CSC(=N)N)c2ccccc12`, for which the T/C was 162 % of control under setting [5]; 175 % of control and 200 % of control under setting [6]; 150 % of control under setting [7]; 150 % of control under setting [8].

For `CCOC(=O)c1[nH]c2ccccc2c1CN(CCCl)CCCl`, the T/C by setting is: under setting [6], 105 % of control; under setting [7], 115 % of control; under setting [8], 115 % of control.

For the compound `O=C(Nc1ccc(C2=NCCN2)cc1)c1cccc(C(=O)Nc2ccc(C3=NCCN3)cc2)c1`, the T/C by setting is: under setting [9], 118 % of control; (endpoint: survival time, mean or median, dose: 32.0 mg/kg/injection, schedule: Q01DX010 (ip), vehicle: saline) 200 % of control and 160 % of control; (endpoint: survival time, mean or median, dose: 64.0 mg/kg/injection, schedule: Q01DX010 (ip), vehicle: saline) 181 % of control and 233 % of control.

For `CC(=O)N(C)C`, the T/C by setting is: under setting [10], 91 % of control and 100 % of control; under setting [11], 100 % of control and 108 % of control; (endpoint: survival time, mean or median, dose: 250.0 mg/kg/injection, schedule: Q01DX010 (ip), vehicle: saline) 91 % of control; (endpoint: survival time, mean or median, dose: 500.0 mg/kg/injection, schedule: Q01DX010 (ip), vehicle: saline) 95 % of control and 104 % of control.

As for `CN(C)c1ccc(Nc2c3ccccc3nc3ccccc23)cc1`, the T/C is 105 % of control and 122 % of control (endpoint: survival time, mean or median, dose: 36.0 mg/kg/injection, schedule: Q01DX010 (ip), vehicle: saline); 120 % of control and 122 % of control (endpoint: survival time, mean or median, dose: 54.0 mg/kg/injection, schedule: Q01DX010 (ip), vehicle: saline); 166 % of control (endpoint: survival time, mean or median, dose: 80.0 mg/kg/injection, schedule: Q01DX010 (ip), vehicle: saline); 111 % of control (endpoint: survival time, mean or median, dose: 120.0 mg/kg/injection, schedule: Q01DX010 (ip), vehicle: saline).

For the compound `CC[n+]1c(-c2ccccc2)c2cc(N)ccc2c2ccc(N)cc21`, the T/C is, setting by setting: (endpoint: survival time, mean or median, dose: 0.12 mg/kg/injection, schedule: Q01DX015 (ip), vehicle: saline) 105 % of control; (endpoint: survival time, mean or median, dose: 0.25 mg/kg/injection, schedule: Q01DX015 (ip), vehicle: saline) 109 % of control; (endpoint: survival time, mean or median, dose: 0.5 mg/kg/injection, schedule: Q01DX015 (ip), vehicle: saline) 120 % of control; (endpoint: survival time, mean or median, dose: 1.0 mg/kg/injection, schedule: Q01DX015 (ip), vehicle: saline) 117 % of control; (endpoint: survival time, mean or median, dose: 2.0 mg/kg/injection, schedule: Q01DX015 (ip), vehicle: saline) 208 % of control; (endpoint: survival time, mean or median, dose: 5.0 mg/kg/injection, schedule: Q01DX015 (ip), vehicle: saline) 163 % of control. In addition, the T/C (endpoint: survival time, mean or median, dose: 10.0 mg/kg/injection, schedule: Q01DX015 (ip), vehicle: saline) was 87 % of control.

Consider `CS(=O)(=O)OCCCCOS(C)(=O)=O`, for which the T/C runs as follows: (endpoint: survival time, mean or median, dose: 6.25 mg/kg/injection, schedule: Q01DX010 (ip), vehicle: saline) 104 % of control and 118 % of control; (endpoint: survival time, mean or median, dose: 12.5 mg/kg/injection, schedule: Q01DX010 (ip), vehicle: saline) 86 % of control; under setting [12], 86 % of control and 95 % of control; under setting [13], 86 % of control and 95 % of control.

As to `C=CC(CN1CC1)OC(C)=O` (centres undefined), the T/C (endpoint: survival time, mean or median, dose: 2.0 mg/kg/injection, schedule: Q01DX010 (ip), vehicle: saline) is 94 % of control; the T/C (endpoint: survival time, mean or median, dose: 4.0 mg/kg/injection, schedule: Q01DX010 (ip), vehicle: saline) is 100 % of control; the T/C under setting [9] was 100 % of control.

Turning to `Cc1c(O)ccc(=O)n1O`, the T/C by setting is: (endpoint: survival time, mean or median, dose: 49.0 mg/kg/injection, schedule: Q01DX015 (ip), vehicle: other) 95 % of control; (endpoint: survival time, mean or median, dose: 73.0 mg/kg/injection, schedule: Q01DX015 (ip), vehicle: other) 113 % of control; (endpoint: survival time, mean or median, dose: 110.0 mg/kg/injection, schedule: Q01DX015 (ip), vehicle: other) 105 % of control; (endpoint: survival time, mean or median, dose: 165.0 mg/kg/injection, schedule: Q01DX015 (ip), vehicle: other) 100 % of control; (endpoint: survival time, mean or median, dose: 247.0 mg/kg/injection, schedule: Q01DX015 (ip), vehicle: other) 95 % of control.

Regarding `CCCSc1ncnc2nc[nH]c12`, the T/C reads like this: (endpoint: survival time, mean or median, dose: 31.3 mg/kg/injection, schedule: Q01DX010 (ip), vehicle: saline) 100 % of control and 111 % of control; under setting [10], 111 % of control; under setting [11], 111 % of control and 122 % of control.

On to `Cc1nc(CON)cs1`, for which the T/C is 90 % of control (endpoint: median survival time, dose: 50.0 mg/kg/injection, schedule: Q01DX015 (ip), vehicle: saline) and 94 % of control (endpoint: median survival time, dose: 100.0 mg/kg/injection, schedule: Q01DX015 (ip), vehicle: saline).

As for `CC(=O)O[C@]1(C(C)=O)CC[C@H]2[C@@H]3C[C@H](C)C4=CC(=O)C=C[C@]4(C)[C@@]3(F)[C@@H](O)C[C@@]21C`, the T/C by setting is: (endpoint: survival time, mean or median, dose: 3.13 mg/kg/injection, schedule: Q01DX010 (sc), vehicle: steriod suspending solution) 100 % of control; (endpoint: survival time, mean or median, dose: 6.25 mg/kg/injection, schedule: Q01DX010 (sc), vehicle: steriod suspending solution) 100 % of control; (endpoint: survival time, mean or median, dose: 12.5 mg/kg/injection, schedule: Q01DX010 (sc), vehicle: steriod suspending solution) 100 % of control and 106 % of control; (endpoint: survival time, mean or median, dose: 25.0 mg/kg/injection, schedule: Q01DX010 (sc), vehicle: steriod suspending solution) 100 % of control; (endpoint: survival time, mean or median, dose: 100.0 mg/kg/injection, schedule: Q01DX010 (sc), vehicle: steriod suspending solution) 93 % of control.

Regarding `CS(=O)(=O)OCC(O)C(O)C(O)C(O)COS(C)(=O)=O` (centres undefined), the T/C is 100 % of control under setting [12]; 100 % of control and 112 % of control under setting [13]; 95 % of control and 112 % of control (endpoint: survival time, mean or median, dose: 100.0 mg/kg/injection, schedule: Q01DX010 (ip), vehicle: saline); 95 % of control and 112 % of control (endpoint: survival time, mean or median, dose: 200.0 mg/kg/injection, schedule: Q01DX010 (ip), vehicle: saline); 112 % of control (endpoint: survival time, mean or median, dose: 400.0 mg/kg/injection, schedule: Q01DX010 (ip), vehicle: saline).

For `Nc1nc(=S)c2[nH]cnc2[nH]1`, the T/C reads like this: (endpoint: survival time, mean or median, dose: 2.5 mg/kg/injection, schedule: Q01DX010 (ip), vehicle: saline) 95 % of control; under setting [5], 122 % of control; under setting [6], 90 % of control and 118 % of control.

For `Cc1c2oc3c(C)ccc(C(=O)NC4C(=O)NC(C(C)C)C(=O)N5CCCC5C(=O)N(C)CC(=O)N(C)C(C(C)C)C(=O)OC4C)c3nc-2c(C(=O)NC2C(=O)NC(C(C)C)C(=O)N3CCC3C(=O)N(C)CC(=O)N(C)C(C(C)C)C(=O)OC2C)c(N)c1=O` (centres undefined) (I: TV[Aze][Sar][NMeV] / II: TVP[Sar][NMeV]; ester I:1-I:C, II:1-II:C; linker I:N-II:N via Actinocin(1to9); configuration not given here), the T/C under setting [1] was 116 % of control; the T/C under setting [2] is 118 % of control; the T/C under setting [3] was 96 % of control; the T/C under setting [4] was 93 % of control; the T/C (endpoint: median survival time, dose: 2080.0 micrograms/kg/injection, schedule: Q01DX001 (ip), vehicle: saline + alcohol) was 86 % of control.

On to `C(CC1CO1)C1CO1` (centres undefined), for which the T/C by setting is: (endpoint: survival time, mean or median, dose: 40.0 mg/kg/injection, schedule: Q01DX015 (ip), vehicle: saline) 150 % of control; (endpoint: survival time, mean or median, dose: 60.0 mg/kg/injection, schedule: Q01DX015 (ip), vehicle: saline) 172 % of control.
